Assay results published in ChEMBL document CHEMBL4507266, “Data for DCP probe BAY-784” (2021).

Tests used:
[1] = test system: Tyrosine-protein kinase ABL1 (Homo sapiens), P00519 [E255K]; conditions: Compound concentration 1000.0 nM
[2] = test system: Tyrosine-protein kinase ABL1 (Homo sapiens), P00519 [Y253F]; conditions: Compound concentration 1000.0 nM
[3] = target: Tyrosine-protein kinase ABL2 (Homo sapiens) (UniProt P42684); conditions: Compound concentration 1000.0 nM
[4] = target: 5'-AMP-activated protein kinase catalytic subunit alpha-1 (Homo sapiens) (UniProt Q13131); conditions: Compound concentration 1000.0 nM
5'-AMP-activated protein kinase catalytic subunit alpha-1 (Homo sapiens), sequence (Q13131 whole entry, looked up): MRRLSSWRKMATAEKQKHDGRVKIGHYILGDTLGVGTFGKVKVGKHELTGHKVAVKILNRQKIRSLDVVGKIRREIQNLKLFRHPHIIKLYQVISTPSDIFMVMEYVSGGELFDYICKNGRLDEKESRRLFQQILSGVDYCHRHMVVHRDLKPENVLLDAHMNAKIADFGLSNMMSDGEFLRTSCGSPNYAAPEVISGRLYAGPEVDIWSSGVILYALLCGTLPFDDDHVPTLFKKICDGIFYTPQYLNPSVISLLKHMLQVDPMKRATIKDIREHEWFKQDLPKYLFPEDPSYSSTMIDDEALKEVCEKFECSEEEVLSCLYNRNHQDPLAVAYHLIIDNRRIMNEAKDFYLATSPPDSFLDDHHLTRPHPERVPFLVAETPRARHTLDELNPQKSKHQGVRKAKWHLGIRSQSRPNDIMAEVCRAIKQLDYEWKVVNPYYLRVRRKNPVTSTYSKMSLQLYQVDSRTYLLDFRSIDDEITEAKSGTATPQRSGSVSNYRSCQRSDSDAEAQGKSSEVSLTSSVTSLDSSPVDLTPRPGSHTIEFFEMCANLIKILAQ

[5] = target: Aurora kinase A (Homo sapiens) (UniProt O14965); conditions: Compound concentration 1000.0 nM
[6] = target: Protein-tyrosine kinase 6 (Homo sapiens) (UniProt Q13882); conditions: Compound concentration 1000.0 nM
[7] = target: Calcium/calmodulin-dependent protein kinase type 1 (Homo sapiens) (UniProt Q14012); conditions: Compound concentration 1000.0 nM
[8] = test system: Epidermal growth factor receptor (Homo sapiens), P00533 [G719C]; conditions: Compound concentration 1000.0 nM
[9] = target: Ephrin type-A receptor 6 (Homo sapiens) (UniProt Q9UF33); conditions: Compound concentration 1000.0 nM
[10] = target: Tyrosine-protein kinase Fes/Fps (Homo sapiens) (UniProt P07332); conditions: Compound concentration 1000.0 nM
[11] = target: Fibroblast growth factor receptor 3 (Homo sapiens) (UniProt P22607); conditions: Compound concentration 1000.0 nM
[12] = target: Receptor-type tyrosine-protein kinase FLT3 (Homo sapiens) (UniProt P36888); conditions: Compound concentration 1000.0 nM
[13] = target: Cyclin-G-associated kinase (Homo sapiens) (UniProt O14976); conditions: Compound concentration 1000.0 nM
[14] = target: Hormonally up-regulated neu tumor-associated kinase (Homo sapiens) (UniProt P57058); conditions: Compound concentration 1000.0 nM
[15] = target: Mitogen-activated protein kinase kinase kinase 2 (Homo sapiens) (UniProt Q9Y2U5); conditions: Compound concentration 1000.0 nM
[16] = target: Mitogen-activated protein kinase kinase kinase kinase 3 (Homo sapiens) (UniProt Q8IVH8); conditions: Compound concentration 1000.0 nM
[17] = target: Serine/threonine-protein kinase MARK2 (Homo sapiens) (UniProt Q7KZI7); conditions: Compound concentration 1000.0 nM
[18] = target: Microtubule-associated serine/threonine-protein kinase 1 (Homo sapiens) (UniProt Q9Y2H9); conditions: Compound concentration 1000.0 nM
Microtubule-associated serine/threonine-protein kinase 1 (Homo sapiens), sequence (Q9Y2H9 whole entry, looked up): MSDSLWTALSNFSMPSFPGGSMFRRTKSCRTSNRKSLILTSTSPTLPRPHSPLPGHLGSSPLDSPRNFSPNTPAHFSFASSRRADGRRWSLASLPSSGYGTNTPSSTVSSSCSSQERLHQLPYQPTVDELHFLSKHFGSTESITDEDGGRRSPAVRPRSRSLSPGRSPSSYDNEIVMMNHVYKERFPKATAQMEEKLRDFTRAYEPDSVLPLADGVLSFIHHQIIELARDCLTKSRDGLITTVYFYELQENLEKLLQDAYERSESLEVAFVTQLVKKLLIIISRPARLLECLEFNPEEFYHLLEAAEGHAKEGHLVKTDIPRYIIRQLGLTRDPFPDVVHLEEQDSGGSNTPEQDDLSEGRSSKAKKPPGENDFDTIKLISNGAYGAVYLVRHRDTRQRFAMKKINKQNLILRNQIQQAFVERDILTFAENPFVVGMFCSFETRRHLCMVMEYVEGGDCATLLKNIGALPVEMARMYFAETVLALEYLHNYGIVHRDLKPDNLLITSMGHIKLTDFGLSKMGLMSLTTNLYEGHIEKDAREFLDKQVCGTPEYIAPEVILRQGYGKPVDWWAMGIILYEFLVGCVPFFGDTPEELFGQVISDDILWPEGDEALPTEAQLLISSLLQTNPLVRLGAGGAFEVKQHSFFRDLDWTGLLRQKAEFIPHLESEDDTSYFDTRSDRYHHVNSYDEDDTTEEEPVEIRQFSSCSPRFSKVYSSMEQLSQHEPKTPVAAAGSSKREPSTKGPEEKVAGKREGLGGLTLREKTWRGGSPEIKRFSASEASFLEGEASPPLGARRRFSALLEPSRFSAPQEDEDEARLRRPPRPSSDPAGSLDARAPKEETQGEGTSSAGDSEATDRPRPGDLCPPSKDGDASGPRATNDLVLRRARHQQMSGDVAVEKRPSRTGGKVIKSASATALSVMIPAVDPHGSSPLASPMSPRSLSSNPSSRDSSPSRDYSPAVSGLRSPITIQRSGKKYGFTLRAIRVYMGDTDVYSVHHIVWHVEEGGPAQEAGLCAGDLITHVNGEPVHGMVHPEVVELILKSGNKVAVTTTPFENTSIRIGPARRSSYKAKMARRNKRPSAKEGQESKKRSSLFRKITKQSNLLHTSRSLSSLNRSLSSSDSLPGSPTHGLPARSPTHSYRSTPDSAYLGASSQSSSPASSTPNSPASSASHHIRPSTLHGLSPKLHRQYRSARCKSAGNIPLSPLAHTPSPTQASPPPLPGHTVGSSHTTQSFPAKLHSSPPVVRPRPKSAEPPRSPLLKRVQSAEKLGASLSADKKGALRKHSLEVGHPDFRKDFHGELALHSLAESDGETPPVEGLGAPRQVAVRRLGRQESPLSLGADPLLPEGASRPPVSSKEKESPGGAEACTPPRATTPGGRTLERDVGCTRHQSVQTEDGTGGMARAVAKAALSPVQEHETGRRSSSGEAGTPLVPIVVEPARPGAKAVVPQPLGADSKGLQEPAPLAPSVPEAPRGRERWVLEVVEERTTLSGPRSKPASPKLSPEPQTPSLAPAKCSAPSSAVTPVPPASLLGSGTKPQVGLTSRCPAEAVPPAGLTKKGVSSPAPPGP

[19] = target: Dual specificity mitogen-activated protein kinase kinase 4 (Homo sapiens) (UniProt P45985); conditions: Compound concentration 1000.0 nM
Dual specificity mitogen-activated protein kinase kinase 4 (Homo sapiens), sequence (P45985 whole entry): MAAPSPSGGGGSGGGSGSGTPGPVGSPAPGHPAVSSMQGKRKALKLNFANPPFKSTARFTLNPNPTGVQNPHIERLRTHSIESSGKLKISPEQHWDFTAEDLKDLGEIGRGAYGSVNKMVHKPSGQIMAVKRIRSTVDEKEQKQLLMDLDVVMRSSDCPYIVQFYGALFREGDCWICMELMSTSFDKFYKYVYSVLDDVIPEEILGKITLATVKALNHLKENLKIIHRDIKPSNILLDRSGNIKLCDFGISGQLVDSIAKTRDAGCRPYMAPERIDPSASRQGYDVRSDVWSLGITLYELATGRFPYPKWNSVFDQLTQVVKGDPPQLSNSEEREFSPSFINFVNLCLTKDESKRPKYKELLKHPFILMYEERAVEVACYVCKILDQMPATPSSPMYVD

[20] = target: Dual specificity mitogen-activated protein kinase kinase 5 (Homo sapiens) (UniProt Q13163); conditions: Compound concentration 1000.0 nM
[21] = target: Serine/threonine-protein kinase 26 (Homo sapiens) (UniProt Q9P289); conditions: Compound concentration 1000.0 nM
Serine/threonine-protein kinase 26 (Homo sapiens), sequence (Q9P289 2-416 limits assumed): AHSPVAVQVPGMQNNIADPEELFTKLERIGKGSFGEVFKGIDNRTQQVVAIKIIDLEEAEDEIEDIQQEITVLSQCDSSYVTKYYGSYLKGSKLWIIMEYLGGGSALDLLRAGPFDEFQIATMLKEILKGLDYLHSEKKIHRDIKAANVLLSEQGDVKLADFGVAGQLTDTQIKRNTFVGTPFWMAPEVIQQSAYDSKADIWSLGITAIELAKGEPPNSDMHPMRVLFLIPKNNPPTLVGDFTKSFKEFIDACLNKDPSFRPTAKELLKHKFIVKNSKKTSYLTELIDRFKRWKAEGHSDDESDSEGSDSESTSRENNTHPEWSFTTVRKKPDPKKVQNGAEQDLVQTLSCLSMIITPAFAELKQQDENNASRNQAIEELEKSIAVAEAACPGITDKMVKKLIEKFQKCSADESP

[22] = target: Mitogen-activated protein kinase 11 (Homo sapiens) (UniProt Q15759); conditions: Compound concentration 1000.0 nM
Mitogen-activated protein kinase 11 (Homo sapiens), sequence (Q15759 whole entry): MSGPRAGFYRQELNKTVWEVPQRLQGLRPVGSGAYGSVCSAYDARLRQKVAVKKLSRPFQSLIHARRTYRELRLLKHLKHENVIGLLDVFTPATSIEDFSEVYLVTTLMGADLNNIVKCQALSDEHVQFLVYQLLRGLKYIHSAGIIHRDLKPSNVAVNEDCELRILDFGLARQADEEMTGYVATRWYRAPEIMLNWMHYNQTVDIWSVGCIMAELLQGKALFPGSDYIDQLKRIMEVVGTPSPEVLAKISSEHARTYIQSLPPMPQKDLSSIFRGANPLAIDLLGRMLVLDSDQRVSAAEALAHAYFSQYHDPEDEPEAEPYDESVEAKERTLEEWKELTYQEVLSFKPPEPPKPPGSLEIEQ

[23] = target: Serine/threonine-protein kinase PAK 3 (Homo sapiens) (UniProt O75914); conditions: Compound concentration 1000.0 nM
[24] = test system: Phosphatidylinositol 4,5-bisphosphate 3-kinase catalytic subunit alpha isoform (Homo sapiens), P42336 [C420R]; conditions: Compound concentration 1000.0 nM
[25] = test system: Phosphatidylinositol 4,5-bisphosphate 3-kinase catalytic subunit alpha isoform (Homo sapiens), P42336 [E545A]; conditions: Compound concentration 1000.0 nM
[26] = target: Interferon-induced, double-stranded RNA-activated protein kinase (Homo sapiens) (UniProt P19525); conditions: Compound concentration 1000.0 nM
[27] = target: Rho-associated protein kinase 1 (Homo sapiens) (UniProt Q13464); conditions: Compound concentration 1000.0 nM
[28] = target: Serine/threonine-protein kinase SBK1 (Homo sapiens) (UniProt Q52WX2); conditions: Compound concentration 1000.0 nM
[29] = target: Serine/threonine-protein kinase SIK1 (Homo sapiens) (UniProt P57059); conditions: Compound concentration 1000.0 nM
[30] = target: SRSF protein kinase 1 (Homo sapiens) (UniProt Q96SB4); conditions: Compound concentration 1000.0 nM
SRSF protein kinase 1 (Homo sapiens), sequence (Q96SB4 whole entry): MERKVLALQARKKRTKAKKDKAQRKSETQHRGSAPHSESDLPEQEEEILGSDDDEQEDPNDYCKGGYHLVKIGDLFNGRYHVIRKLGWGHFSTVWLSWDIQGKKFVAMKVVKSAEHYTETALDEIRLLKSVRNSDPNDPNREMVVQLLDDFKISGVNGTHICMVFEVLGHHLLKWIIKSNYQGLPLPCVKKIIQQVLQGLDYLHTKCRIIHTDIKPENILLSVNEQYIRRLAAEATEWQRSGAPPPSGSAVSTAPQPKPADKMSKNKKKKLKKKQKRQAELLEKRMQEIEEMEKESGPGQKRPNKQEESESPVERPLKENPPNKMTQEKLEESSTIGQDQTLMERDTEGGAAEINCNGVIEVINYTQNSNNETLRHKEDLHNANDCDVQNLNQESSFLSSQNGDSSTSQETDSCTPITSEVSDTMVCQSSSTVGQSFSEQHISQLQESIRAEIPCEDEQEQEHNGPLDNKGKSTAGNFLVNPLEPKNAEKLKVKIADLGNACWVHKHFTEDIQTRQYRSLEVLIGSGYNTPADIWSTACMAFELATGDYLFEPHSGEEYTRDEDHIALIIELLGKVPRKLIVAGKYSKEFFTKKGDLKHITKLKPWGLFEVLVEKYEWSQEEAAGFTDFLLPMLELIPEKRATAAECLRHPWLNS

[31] = target: STE20/SPS1-related proline-alanine-rich protein kinase (Homo sapiens) (UniProt Q9UEW8); conditions: Compound concentration 1000.0 nM
[32] = target: Dual specificity testis-specific protein kinase 1 (Homo sapiens) (UniProt Q15569); conditions: Compound concentration 1000.0 nM
Dual specificity testis-specific protein kinase 1 (Homo sapiens), sequence (Q15569 whole entry, looked up): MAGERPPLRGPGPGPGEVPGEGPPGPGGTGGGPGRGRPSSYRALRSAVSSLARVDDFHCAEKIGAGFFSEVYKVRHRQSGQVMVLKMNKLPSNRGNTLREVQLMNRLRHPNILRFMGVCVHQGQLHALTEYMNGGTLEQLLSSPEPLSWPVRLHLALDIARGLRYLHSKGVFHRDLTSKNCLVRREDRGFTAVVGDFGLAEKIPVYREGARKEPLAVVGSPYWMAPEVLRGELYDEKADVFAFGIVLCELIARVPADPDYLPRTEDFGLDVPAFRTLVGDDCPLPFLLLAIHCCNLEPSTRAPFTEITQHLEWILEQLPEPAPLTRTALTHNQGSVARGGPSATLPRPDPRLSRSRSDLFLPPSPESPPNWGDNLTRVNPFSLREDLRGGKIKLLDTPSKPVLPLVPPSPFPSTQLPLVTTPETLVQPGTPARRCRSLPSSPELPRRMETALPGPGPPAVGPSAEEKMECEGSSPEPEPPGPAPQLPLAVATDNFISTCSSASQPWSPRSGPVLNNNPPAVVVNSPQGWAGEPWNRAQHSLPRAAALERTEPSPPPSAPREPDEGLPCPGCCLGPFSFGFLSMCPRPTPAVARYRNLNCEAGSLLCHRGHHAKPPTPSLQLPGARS

[33] = target: TGF-beta receptor type-1 (Homo sapiens) (UniProt P36897); conditions: Compound concentration 1000.0 nM
[34] = target: Tyrosine-protein kinase receptor Tie-1 (Homo sapiens) (UniProt P35590); conditions: Compound concentration 1000.0 nM
[35] = target: TRAF2 and NCK-interacting protein kinase (Homo sapiens) (UniProt Q9UKE5); conditions: Compound concentration 1000.0 nM
[36] = target: Serine/threonine-protein kinase ULK1 (Homo sapiens) (UniProt O75385); conditions: Compound concentration 1000.0 nM
[37] = target: T1, 5-hydroxytryptamine receptor 3A (Homo sapiens) (UniProt P46098); conditions: Compound concentration 10.0 uM
T1 sequence (whole entry): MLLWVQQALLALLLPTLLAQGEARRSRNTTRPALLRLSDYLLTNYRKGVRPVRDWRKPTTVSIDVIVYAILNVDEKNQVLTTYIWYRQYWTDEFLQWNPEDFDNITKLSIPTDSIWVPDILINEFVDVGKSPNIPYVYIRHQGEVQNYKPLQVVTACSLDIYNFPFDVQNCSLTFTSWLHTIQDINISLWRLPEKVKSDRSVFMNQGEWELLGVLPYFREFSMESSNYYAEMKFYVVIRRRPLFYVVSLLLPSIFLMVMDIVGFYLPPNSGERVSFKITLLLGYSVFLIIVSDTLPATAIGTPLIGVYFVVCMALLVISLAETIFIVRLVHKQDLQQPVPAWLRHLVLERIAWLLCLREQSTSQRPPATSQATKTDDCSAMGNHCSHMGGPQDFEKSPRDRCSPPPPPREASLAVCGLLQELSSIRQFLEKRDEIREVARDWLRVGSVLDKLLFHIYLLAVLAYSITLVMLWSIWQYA

[38] = target: D(3) dopamine receptor (Homo sapiens) (UniProt P35462); conditions: Compound concentration 10.0 uM
D(3) dopamine receptor (Homo sapiens), sequence (P35462 whole entry): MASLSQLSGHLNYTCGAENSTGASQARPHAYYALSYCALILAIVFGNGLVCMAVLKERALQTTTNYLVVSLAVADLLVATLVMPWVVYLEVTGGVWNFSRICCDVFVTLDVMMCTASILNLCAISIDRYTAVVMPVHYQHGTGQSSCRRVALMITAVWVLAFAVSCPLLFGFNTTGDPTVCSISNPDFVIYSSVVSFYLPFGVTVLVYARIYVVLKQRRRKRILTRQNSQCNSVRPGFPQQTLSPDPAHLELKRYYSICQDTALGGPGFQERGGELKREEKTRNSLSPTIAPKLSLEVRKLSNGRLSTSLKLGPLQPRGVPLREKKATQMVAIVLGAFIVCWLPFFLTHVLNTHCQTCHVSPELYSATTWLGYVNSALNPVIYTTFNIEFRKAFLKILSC

Row | SMILES | residual activity [1] [%] | residual activity [2] [%] | residual activity [3] [%] | residual activity [4] [%] | residual activity [5] [%] | residual activity [6] [%] | residual activity [7] [%] | residual activity [8] [%] | residual activity [9] [%] | residual activity [10] [%] | residual activity [11] [%] | residual activity [12] [%] | residual activity [13] [%] | residual activity [14] [%] | residual activity [15] [%] | residual activity [16] [%] | residual activity [17] [%] | residual activity [18] [%] | residual activity [19] [%] | residual activity [20] [%] | other results
1 | O=C(NCc1ncc(C(F)(F)F)cc1Cl)c1ccc2c(c1)C1(CCS(=O)(=O)CC1)[C@@H](C1CC1)N2S(=O)(=O)c1ccc(F)cc1 [BAY-786] | 100 | 100 | 100 | 97 | 81 | 94 | 97 | 90 | 100 | 93 | 100 | 100 | 96 | 85 | 88 | 100 | 63 | 61 | 76 | 90 | residual activity [21]: 82%; residual activity [22]: 100%; residual activity [23]: 89%; residual activity [24]: 77%; residual activity [25]: 90%; residual activity [26]: 97%; residual activity [27]: 82%; residual activity [28]: 92%; residual activity [29]: 89%; residual activity [30]: 96%; residual activity [31]: 77%; residual activity [32]: 85%; residual activity [33]: 84%; residual activity [34]: 95%; residual activity [35]: 71%; residual activity [36]: 80%; inhibition [37]: -1.68%; inhibition [38]: 3.82%
2 | O=C(NCc1ncc(C(F)(F)F)cc1Cl)c1ccc2c(c1)C1(CCS(=O)(=O)CC1)[C@H](C1CC1)N2S(=O)(=O)c1ccc(F)cc1 [BAY-784] | 80 | 85 | 100 | 39 | 97 | 100 | 84 | 78 | 100 | 100 | 100 | 100 | 97 | 84 | 66 | 100 | 100 | 54 | 75 | 69 | residual activity [21]: 100%; residual activity [22]: 100%; residual activity [23]: 91%; residual activity [24]: 77%; residual activity [25]: 89%; residual activity [26]: 100%; residual activity [27]: 94%; residual activity [28]: 97%; residual activity [29]: 100%; residual activity [30]: 72%; residual activity [31]: 84%; residual activity [32]: 91%; residual activity [33]: 100%; residual activity [34]: 100%; residual activity [35]: 100%; residual activity [36]: 90%; inhibition [37]: 1.44%; inhibition [38]: 9.45%
